ChEMBL document CHEMBL3616471, “Synthesis and in vitro antitumor evaluation of betulin acid ester derivatives as novel apoptosis inducers” (Eur J Med Chem, 2015)
Active and inactive are the calls of the source. The calls are words filed in the database; no cut-off is given here.

What was measured:
MCF7 [1] = experiment: Cytotoxicity against human MCF7 cells after 72 hrs by MTT assay; format: functional, cell-based; conditions: MCF7, 72 h
PC-3 [2] = experiment: Cytotoxicity against human PC3 cells after 72 hrs by MTT assay; format: functional, cell-based; conditions: PC-3, 72 h
Bcap37 [3] = experiment: Cytotoxicity against human Bcap37 cells after 72 hrs by MTT assay; format: functional, cell-based; conditions: Bcap37, 72 h
A-375 [4] = experiment: Cytotoxicity against human A375 cells after 72 hrs by MTT assay; format: functional, cell-based; conditions: A-375, 72 h
MGC-803 [5] = experiment: Cytotoxicity against human MGC803 cells after 72 hrs by MTT assay; format: functional, cell-based; conditions: MGC-803, 72 h
PC-3 [6] = experiment: Selectivity index, ratio of IC50 for mouse NIH/3T3 cells to IC50 for human PC3 cells; format: functional
Bcap37 [7] = experiment: Selectivity index, ratio of IC50 for mouse NIH/3T3 cells to IC50 for human Bcap37 cells; format: functional
MCF7 [8] = experiment: Selectivity index, ratio of IC50 for mouse NIH/3T3 cells to IC50 for human MCF7 cells; format: functional
[9] = Cytotoxicity against mouse NIH/3T3 cells after 72 hrs by MTT assay; format: cell-based; conditions: nih3t3, 72 h
A-375 [10] = experiment: Selectivity index, ratio of IC50 for mouse NIH/3T3 cells to IC50 for human A375 cells; format: functional
MGC-803 [11] = experiment: Selectivity index, ratio of IC50 for mouse NIH/3T3 cells to IC50 for human MGC803 cells; format: functional
MGC-803 [12] = experiment: Induction of apoptosis in human MGC803 cells assessed as compact and condensed chromatin at 10 uM after 48 hrs using Hoechst 33258 staining by fluorescence microscopic analysis; format: functional, cell-based
MGC-803 [13] = experiment: Induction of apoptosis in human MGC803 cells assessed as formation of nicks in DNA at 10 uM after 48 hrs by TUNNEL assay; format: functional, cell-based

| Compound | IC50 (MCF7 [1]) [µM] | IC50 (PC-3 [2]) [µM] | IC50 (Bcap37 [3]) [µM] | IC50 (A-375 [4]) [µM] | IC50 (MGC-803 [5]) [µM] | Ratio IC50 (PC-3 [6]) | Ratio IC50 (Bcap37 [7]) | Ratio IC50 (MCF7 [8]) | Activity [9] | Ratio IC50 (A-375 [10]) | Ratio IC50 (MGC-803 [11]) | Activity (MGC-803 [12]) | Activity (MGC-803 [13]) |
| --- | --- | --- | --- | --- | --- | --- | --- | --- | --- | --- | --- | --- | --- |
| C=C(C)[C@@H]1CC[C@]2(COC(=O)/C=C/c3ccccc3)CC[C@]3(C)[C@H](CC[C@@H]4[C@@]5(C)CC[C@H](O)C(C)(C)[C@@H]5CC[C@]43C)[C@@H]12 | > 100 | > 100 | > 100 | > 100 | > 100 |  |  |  |  |  |  |  |  |
| C=C(C)[C@@H]1CC[C@]2(CO)CC[C@]3(C)[C@H](CC[C@@H]4[C@@]5(C)CC[C@H](O)C(C)(C)[C@@H]5CC[C@]43C)[C@@H]12 [BETULIN] | 19.3 | 22.4 | 25.5 | 28 | 30.2 |  |  |  |  |  |  |  |  |
| C=C(C)[C@@H]1CC[C@]2(COC(=O)c3ccc(F)cc3)CC[C@]3(C)[C@H](CC[C@@H]4[C@@]5(C)CC[C@H](O)C(C)(C)[C@@H]5CC[C@]43C)[C@@H]12 | > 100 | > 100 | > 100 | > 100 | > 100 |  |  |  |  |  |  |  |  |
| C=C(C)[C@@H]1CC[C@]2(COC(=O)CCC(=O)N(CC)CC)CC[C@]3(C)[C@H](CC[C@@H]4[C@@]5(C)CC[C@H](O)C(C)(C)[C@@H]5CC[C@]43C)[C@@H]12 | 9.2 | 9.6 | 6.7 | 10.3 | 8.5 | 6.45 | 9.25 | 6.73 | Non-toxic | 6.01 | 7.29 |  |  |
| C=C(C)[C@@H]1CC[C@]2(COC(=O)c3ccccc3C(F)(F)F)CC[C@]3(C)[C@H](CC[C@@H]4[C@@]5(C)CC[C@H](O)C(C)(C)[C@@H]5CC[C@]43C)[C@@H]12 | > 100 | > 100 | > 100 | > 100 | > 100 |  |  |  |  |  |  |  |  |
| C=C(C)[C@@H]1CC[C@]2(COC(=O)c3ccccc3C(F)(F)F)CC[C@]3(C)[C@H](CC[C@@H]4[C@@]5(C)CC[C@H](OC(=O)c6ccccc6C(F)(F)F)C(C)(C)[C@@H]5CC[C@]43C)[C@@H]12 | > 100 | > 100 | > 100 | > 100 | > 100 |  |  |  |  |  |  |  |  |
| C=C(C)[C@@H]1CC[C@]2(COC(=O)CCC(=O)O)CC[C@]3(C)[C@H](CC[C@@H]4[C@@]5(C)CC[C@H](O)C(C)(C)[C@@H]5CC[C@]43C)[C@@H]12 | 14.5 | 12.5 | 15.7 | 17.9 | 11.3 | 5.83 | 4.64 | 5.02 | Non-toxic | 4.07 | 6.45 |  |  |
| C=C(C)[C@@H]1CC[C@]2(COC(=O)Cc3ccc(Cl)cc3)CC[C@]3(C)[C@H](CC[C@@H]4[C@@]5(C)CC[C@H](O)C(C)(C)[C@@H]5CC[C@]43C)[C@@H]12 | > 100 | > 100 | > 100 | > 100 | > 100 |  |  |  |  |  |  |  |  |
| CC[C@@]1(O)C(=O)OCc2c1cc1n(c2=O)Cc2cc3cc(O)ccc3nc2-1 |  |  |  |  |  |  |  |  |  |  |  | Active | Active |
| C=C(C)[C@@H]1CC[C@]2(COC(=O)c3ccccc3C)CC[C@]3(C)[C@H](CC[C@@H]4[C@@]5(C)CC[C@H](O)C(C)(C)[C@@H]5CC[C@]43C)[C@@H]12 | > 100 | > 100 | > 100 | > 100 | > 100 |  |  |  |  |  |  |  |  |
| C=C(C)[C@@H]1CC[C@]2(COC(=O)c3cccc([N+](=O)[O-])c3)CC[C@]3(C)[C@H](CC[C@@H]4[C@@]5(C)CC[C@H](OC(=O)c6cccc([N+](=O)[O-])c6)C(C)(C)[C@@H]5CC[C@]43C)[C@@H]12 | > 100 | > 100 | > 100 | > 100 | > 100 |  |  |  |  |  |  |  |  |
| C=C(C)[C@@H]1CC[C@]2(COC(=O)c3ccccc3)CC[C@]3(C)[C@H](CC[C@@H]4[C@@]5(C)CC[C@H](O)C(C)(C)[C@@H]5CC[C@]43C)[C@@H]12 | > 100 | > 100 | > 100 | > 100 | > 100 |  |  |  |  |  |  |  |  |
| C=C(C)[C@@H]1CC[C@]2(COC(=O)c3ccccc3Cl)CC[C@]3(C)[C@H](CC[C@@H]4[C@@]5(C)CC[C@H](OC(=O)c6ccccc6Cl)C(C)(C)[C@@H]5CC[C@]43C)[C@@H]12 | > 100 | > 100 | > 100 | > 100 | > 100 |  |  |  |  |  |  |  |  |
| C=C(C)[C@@H]1CC[C@]2(COC(=O)/C=C/C(=O)O)CC[C@]3(C)[C@H](CC[C@@H]4[C@@]5(C)CC[C@H](O)C(C)(C)[C@@H]5CC[C@]43C)[C@@H]12 | 17.1 | 25.8 | 18.3 | 23.2 | 21.3 | >3 | >3 | >3 | Toxic | >3 | >3 |  |  |
| C=C(C)[C@@H]1CC[C@]2(COC(=O)c3ccccc3)CC[C@]3(C)[C@H](CC[C@@H]4[C@@]5(C)CC[C@H](OC(=O)c6ccccc6)C(C)(C)[C@@H]5CC[C@]43C)[C@@H]12 | > 100 | > 100 | > 100 | > 100 | > 100 |  |  |  |  |  |  |  |  |
| C=C(C)[C@@H]1CC[C@]2(COC(=O)c3cccc(Cl)c3)CC[C@]3(C)[C@H](CC[C@@H]4[C@@]5(C)CC[C@H](O)C(C)(C)[C@@H]5CC[C@]43C)[C@@H]12 | > 100 | > 100 | > 100 | > 100 | > 100 |  |  |  |  |  |  |  |  |
| C=C(C)[C@@H]1CC[C@]2(COC(=O)CCC(=O)N3CCCC3)CC[C@]3(C)[C@H](CC[C@@H]4[C@@]5(C)CC[C@H](O)C(C)(C)[C@@H]5CC[C@]43C)[C@@H]12 | 10.1 | 8.3 | 7.9 | 12.6 | 8.9 | 5.33 | 5.6 | 4.38 | Non-toxic | 3.52 | 4.97 |  |  |
| C=C(C)[C@@H]1CC[C@]2(COC(=O)CCC(=O)N3CCOCC3)CC[C@]3(C)[C@H](CC[C@@H]4[C@@]5(C)CC[C@H](O)C(C)(C)[C@@H]5CC[C@]43C)[C@@H]12 | 11.5 | 11.2 | 6.4 | 18.5 | 9.2 | 5.12 | 8.97 | 4.99 | Non-toxic | 3.1 | 6.23 |  |  |
| C=C(C)[C@@H]1CC[C@]2(COC(=O)/C=C/C(=O)N3CCCCC3)CC[C@]3(C)[C@H](CC[C@@H]4[C@@]5(C)CC[C@H](O)C(C)(C)[C@@H]5CC[C@]43C)[C@@H]12 | 6.3 | 9.6 | 7.4 | 14.4 | 5.3 | >3 | >3 | >3 | Toxic | >3 | >3 |  |  |
